The values that follow come from US20220133717A1, “RABEXIMOD IN THE TREATMENT OF RHEUMATOID ARTHRITIS” (CYXONE AB, priority 2020, published 2022).

For this assay, the system named is patients with moderate or severe active rheumatoid arthritis. The assay can be described thus: Phase II clinical trial: efficacy (ACR20/50, DAS28, EULAR response, ACR components). The format is in vivo, human. Here is the method:
The primary objective of this study was to evaluate the efficacy (American College of Rheumatology 20) of Rabeximod administered orally once daily for 12 weeks in combination with a stable dose of methotrexate in patients with moderate or severe active rheumatoid arthritis. Efficacy was evaluated by American College of Rheumatology 20 (66/68 joint count) after 12 weeks of treatment.
The primary endpoint of this study is the American College of Rheumatology (ACR20) 20 improvement measured after 12 weeks of treatment with study drug. The ACR20 is a composite score defined as an improvement of 20% in the number of swollen and tender joints and a 20% improvement in 3 of the following 5: • Patient self-assessed disability by modified Health Assessment Questionnaire (mHAQ) • Physician Global assessment • Subject Global assessment • Patient pain assessment • Acute phase reactant (C-reactive protein [CRP]) Secondary efficacy endpoints were as follows: • ACR20 improvement measured after 4 and 8 weeks of treatment • Subgroup analysis of ACR20 results from patients enrolled with baseline CRP >1.5 mg/dL. • ACR50/70 improvement measured after 4, 8 and 12 weeks • Original Disease Activity Score (DAS) change from baseline (according to the European League Against Rheumatism [EULAR] Response Criteria). Note: the Original DAS was replaced with DAS28 • Change from baseline in: number of swollen/tender joints, morning stiffness duration. Subject and Physician Global assessments, pain assessed by Visual Analogue Scale (VAS), self-assessed physical disability (mHAQ), erythrocyte sedimentation rate (ESR) and CRP • The evaluation of pharmacokinetic (PK) and pharmacodynamic (PD) high sensitive CRP, TNF-a, interleukin-6 [IL-6] and anti-cyclic citrullinated peptide antibody [anti-CCP]) over time
This was a multicentre, multinational, dose-ranging, randomised, double-blind, multiple dose, placebo-controlled, parallel-group study of Rabeximod administered orally in a total of 225 enrolled patients with moderate or severe active RA. All patients must have been receiving weekly methotrexate treatment for at least 16 weeks (with unchanged doses for at least 8 weeks) up to Day 0 of study.
Diagnosis of RA was based on the American Rheumatism Association (ARA) 1987 revised criteria, having an ACR global functional class of 1 to 3, stable methotrexate dose of at least 15 mg per week and central laboratory CRP level at study entry of at least 1.5 mg/dL and clinical findings of active disease (at least 6 swollen and 6 tender joints to palpation). Individual patient duration in the study was approximately 126 days (a 14-day screening period, an 84-day treatment period [12 weeks], and a 28 day [4-week] follow-up period).
After meeting the inclusion and exclusion criteria and providing informed consent, patients were randomly assigned (1:1:1:1 ratio) to receive 1 of the following treatments: • 6.25 mg Rabeximod • 15 mg Rabeximod • 37.5 mg Rabeximod • Placebo
An assessment of tender and swollen joints was performed for the ACR response criteria. Joints to be evaluated for disease activity assessment (using the ACR 66/68 joint count) included the following: temporomandibular, sternoclavicular, acromioclavicular, shoulder, elbow, wrist, all 5 metacarpophalangeal joints, 4 proximal interphalangeal joints, 4 distal interphalangeal, thumb interphalangeal joint, hip (for tenderness only), knee, ankle, tarsus, 5 metatarsophalangeal, 4 proximal interphalangeal and foot thumb interphalangeal joints at each side. In accordance with the protocol, an independent joint reviewer performed the rheumatology examination, where possible. If an independent joint reviewer was not available, the same examiner performed all rheumatology examinations for a patient throughout the study.
Patient satisfaction in performing activities of daily living was assessed using the mHAQ. […]

As for `Cc1cc2nc3c4cc(Cl)ccc4n(CC(=O)NCCN(C)C)c3nc2cc1C` [Rabeximod, 9-Chloro-2,3-dimethyl-6-(N,N-dimethylaminoethylamino-2-oxoethyl)-6H-indolo-[2,3-b]quinoxaline], the “percentage mean reduction in joint pain, comparison of dose groups” value (15 mg group) is reported as “best results”. The “percentage of patients achieving ACR50, comparison of dose groups” value (15 mg group) is reported as “best results”. Also, the “reduction in duration of morning stiffness, comparison of dose groups” value (15 mg group, especially at week 16) was “best results”. The “percentage of patients achieving ACR50 response compared with placebo” value ("At Week" (number not given), 6.25, 15 and 37.5 mg groups) was “higher percentage”. In addition, the “change from baseline in each component of the ACR response (joint count 66/68, Global assessments VAS, joint pain, HAQ-DI, CRP, ESR)” value (Rabeximod groups) is given as “notable decrease (improvement)”. Besides, the “change in mean DAS28 score from baseline” value is −1.063 points (Week 12, 6.25 mg group (placebo −0.983)); −1.214 points (Week 12, 15 mg group (placebo −0.983)); −1.204 points (Week 12, 37.5 mg group (placebo −0.983)). Further, where the note is “Week 12, Rabeximod groups”, the “proportion of patients achieving ACR20 compared with placebo” value is given as “larger proportion”. Also, the “increases in the proportions of patients achieving ACR50” value (Week 16) is listed as “greater”. Further, under “Week 16”, the “percentage mean reduction from baseline in swollen (66) and tender (68) joint counts, Physician and Subject Global assessments” value is given as “notable improvements”. The “percentage of patients achieving a good or moderate EULAR response” value (Week 16, 6.5 mg group (placebo 38.5%)) came to 37.8%; the “percentage of patients achieving a good or moderate EULAR response” value (Week 16, 15 mg group (placebo 38.5%)) is given as 67.7%; the “percentage of patients achieving a good or moderate EULAR response” value (Week 16, 37.5 mg group (placebo 38.5%)) is 55.8%. In addition, under “Week 16, 15 mg group”, the “proportions of patients achieving ACR20, comparison of dose groups” value is “best results”. Moreover, the “reduction in swollen/tender joint counts and Global assessments, comparison of dose groups” value (Week 16, 15 mg group) was “best results”. Also, the “proportions of patients achieving ACR20” value (Week 16, Rabeximod groups) is on record as “continued to increase”. Further, the “duration of morning stiffness compared with placebo” value (majority of time points, Rabeximod groups) was “greater reductions (improvement)”. Further, under “onset at least 8-12 weeks after first dose, further improvement at Week 16”, the “improvement in symptoms compared with placebo (plus methotrexate)” value is “greater improvement”. The “percentage mean reduction from baseline in joint pain” value (week 1) is on record as “notable”.
